In patent publication US4810702A, “Antibacterial agent for mammal use comprising cephalosporin derivatives as an effective ingredient” (Meiji Seika Kaisha, Ltd., priority 1986, dated 1989):
Converted amounts (≈) assume the structure as drawn. Counter-ions that a name gives are not always drawn. Like-named read-outs stand apart in the source and are kept apart here.

What was measured:
[1] = Acute toxicity test, Test Example 5; assay type: in vivo; conditions: mouse, in vivo, iv; ICR male mice, tail vein; 14 days
Method: (§1) 75 mg of each test compound was dissolved in 0.4 ml of phuysiological saline. The solution was administered to the tail vein of ICR strain male mice (mean body weight of 25 g, 5 weeks old) of one group being 3 mice. Observation was made for 14 days.

[2] = system: ICR strain male mice; test: Acute toxicity test, Test Example 5; assay type: in vivo; conditions: for survival: ICR male mice, 75 mg in 0.4 ml, tail vein, 14 days
Method: as §1

[3] = system: Escherichia coli GN206; test: Effect to prevent infections in mice, Test Example 6; assay type: in vivo, ICR strain male mice; conditions: mouse, i.p. infection 9.5 × 10^6 CFU/mouse with mucin; s.c. one hour after; 7 days
Method: (§2) The culture solution of each test bacterium was adjusted to a bacterial concentration shown in the table and then supplemented with 2.5% (W/V) of mucin. The solution was intraperitoneally administered to ICR strain male mice (mean body weight of 20 g, 4 weeks old) of one group being 8 at a dose of 0.5 ml to experimentally cause infection. Each test compound was subcutaneously administered one hour after (provided that in case of Pseudomonas aeruginosa was given one hour and 3 hours after). Observation was made for 7 days.

[4] = system: Escherichia coli No. 29; test: as above; assay type: in vivo, ICR strain male mice; conditions: mouse, i.p. infection 2.3 × 10^5 CFU/mouse with mucin; s.c. one hour after; 7 days
Method: as §2

[5] = system: Klebsiella pneumoniae PCI 602; test: as above; assay type: in vivo, ICR strain male mice; conditions: mouse, i.p. infection 6.5 × 10^4 CFU/mouse with mucin; s.c. one hour after; 7 days
Method: as §2

[6] = system: Pseudomonas aeruginosa GN10362; test: as above; assay type: in vivo, ICR strain male mice; conditions: mouse, i.p. infection 8.8 × 10^5 CFU/mouse with mucin; s.c. one hour and 3 hours after; 7 days
Method: as §2

[7] = system: Escherichia coli No. 29; test: MIC of the infecting strain, Table 2; assay type: cell-based
Method: (§3) The minimum growth inhibitory concentration (MIC) against various bacteria was measured in a bacterial count of 10^6 CFU/ml using medium SDA (NISSUI) in accordance with the Japan Chemotherapy Association.

[8] = system: Klebsiella pneumoniae PCI 602; test: MIC of the infecting strain, Table 2; assay type: cell-based; conditions: PCI602
Method: as §3

[9] = system: Pseudomonas aeruginosa GN10362; test: MIC of the infecting strain, Table 2; assay type: cell-based
Method: as §3

[10] = system: Staphylococcus epidermidis ATCC 14990; test: Minimum growth inhibitory concentration, Test Example 1; assay type: cell-based
Method: as §3

[11] = system: Pseudomonas aeruginosa IAM-1007; test: as above; assay type: cell-based
Method: as §3

[12] = system: Escherichia coli 255; test: as above; assay type: cell-based; conditions: 10^6 CFU/ml, medium SDA
Method: as §3

[13] = system: Pseudomonas aeruginosa M-0148; test: as above; assay type: cell-based
Method: as §3

[14] = system: Escherichia coli 255/S-1; test: as above; assay type: cell-based; conditions: 255/S1, 10^6 CFU/ml, medium SDA
Method: as §3

[15] = system: Escherichia coli W3630 RGN823; test: as above; assay type: cell-based; conditions: W3630RGN823, read-out: Minimum Growth Inhibitory Concentration MIC
Method: as §3

[16] = system: Citrobacter freundii GN346/16; test: as above; assay type: cell-based
Method: as §3

[17] = system: Citrobacter freundii GN346/16-10; test: as above; assay type: cell-based; conditions: GN346, read-out: Minimum Growth Inhibitory Concentration MIC
Method: as §3

[18] = system: Bacillus subtilis ATCC6633; test: as above; assay type: cell-based
Method: as §3

[19] = system: Citrobacter freundii GN346; test: as above; assay type: cell-based
Method: as §3

[20] = system: Escherichia coli W3630 RGN238; test: as above; assay type: cell-based; conditions: W3630RGN238, read-out: Minimum Growth Inhibitory Concentration MIC
Method: as §3

[21] = system: Staphylococcus aureus Smith (I); test: as above; assay type: cell-based; conditions: read-out: Minimum Growth Inhibitory Concentration MIC
Method: as §3

[22] = system: Pseudomonas aeruginosa Ml Rms139; test: as above; assay type: cell-based; conditions: MLRMS139, read-out: Minimum Growth Inhibitory Concentration MIC
Method: as §3

[23] = system: Escherichia coli GN206; test: Minimum growth inhibitory concentration; assay type: cell-based
Method: as §3

[24] = system: clinically isolated Klebsiella pneumoniae, Proteus vulgaris and Pseudomonas aeruginosa; test: Distribution in sensitivity of clinically isolated strains, Test Examples 2 to 4; assay type: cell-based; conditions: compared to known compounds
Method: Each MIC of various bacteria clinically isolated from patients was measured in a manner similar to Test Example 1 and its percentage to the all strains to reach the inhibitory concentration was accumulatively expressed .
Distribution in sensitivity to pneumobacilli clinically isolated.
Distribution in sensitivity to variant clinically isolated.
Distribution in sensitivity to Pseudomonas aeruginosa clinically isolated.

[25] = Concentration in blood plasma (rat) and in serum (common marmoset), Test Examples 7 and 8; assay type: in vivo, SD strain male rats; female common marmosets; conditions: various animal tests
Method: A test compound was dissolved in physiological saline in a concentration of 20 mg/ml. The solution was given in the tail vein of SD strain male rats (mean body weight of 325 g) of one group being 4 in a dose of 1 ml/kg. Blood was collected from the femoral artery in course of time and blood plasma was isolated from the blood. A concentration of the test compound in blood plasma was quantitatively assayed by high performance liquid chromatography. A test compound was dissolved in 0.05M phosphate buffer (pH 6.5) in a concentration of 2.0 mg/ml. The solution was intramuscularly administered to female common marmosets of one group being 2 in a dose of 5 ml/kg. Blood was collected from the femoral artery with passage of time and serum was separated from the blood followed by quantitative assay by bioassay using Escherichia coli K-12 HW 8236 as a bacterium for the assay.

[26] = system: Escherichia coli, pneumobacilli and Pseudomons aeruginosa; test: Effect to prevent infections, overall comparison with known compounds, Test Example 6; assay type: in vivo, ICR strain male mice; conditions: compared to the known compounds (CAZ, HR-810)
Method: as §2

[27] = Citrobacter freundii, GN346, read-out: Minimum Growth Inhibitory Concentration MIC
[28] = Klebsiella pneumoniae PCI 602, Table 2, read-out: MIC
[29] = ATCC14990, Staphylococcus epidermidis ATCC 14990, 10^6 CFU/ml, medium SDA, read-out: Minimum Growth Inhibitory Concentration MIC
[30] = IAM1007, Pseudomonas aeruginosa IAM-1007, 10^6 CFU/ml, medium SDA, read-out: Minimum Growth Inhibitory Concentration MIC
[31] = M0148, Pseudomonas aeruginosa M-0148, 10^6 CFU/ml, medium SDA, read-out: Minimum Growth Inhibitory Concentration MIC
[32] = Citrobacter freundii GN346/16, 10^6 CFU/ml, medium SDA, read-out: Minimum Growth Inhibitory Concentration MIC
[33] = Bacillus subtilis ATCC6633, 10^6 CFU/ml, medium SDA, read-out: Minimum Growth Inhibitory Concentration MIC
[34] = Citrobacter freundii GN346, 10^6 CFU/ml, medium SDA, read-out: Minimum Growth Inhibitory Concentration MIC
[35] = Staphylococcus aureus Smith (I), 10^6 CFU/ml, medium SDA
[36] = Escherichia coli GN206, Table 1, 10^6 CFU/ml, medium SDA, read-out: Minimum Growth Inhibitory Concentration MIC

Row | Compound | LD50 at 336 h [1] | survival [2] | ED50 (preventive effect) [3] | ED50 (preventive effect) [4] | ED50 (preventive effect) [5] | ED50 (preventive effect) [6] | MIC [7] | MIC [12] | MIC [14] | MIC [15] | MIC [20] | MIC [22] | MIC [8, 28] | MIC [10, 29] | MIC [11, 30] | MIC [13, 31] | MIC [16, 32] | MIC [18, 33] | MIC [19, 34] | MIC [21, 35] | also measured
1 | CC(C)(ON=C(C(=O)NC1C(=O)N2C(C(=O)[O-])=C(C[n+]3ccccc3)CSC12)c1csc(N)n1)C(=O)O [CAZ, (6R, 7R)-7-[(Z)-2-(2-aminothiazol-4-yl)-2-(2-methylcarboxyisoprop;oxyimino)acetamido]-3-pyridinium-1-ylmethyl-ceph-3-em-4-carboxylate] | ≥ 4000 mg/kg | survived | 1.0 mg/mouse | 0.006 mg/mouse | 0.57 mg/mouse | 8 mg/mouse | 0.2 µg/mL | 12.5 µg/mL (≈ 22.9 µM) | 0.39 µg/mL (≈ 0.714 µM) | 0.2 µg/mL (≈ 0.366 µM) | 0.2 µg/mL (≈ 0.366 µM) | 0.78 µg/mL (≈ 1.43 µM) | – | – | – | – | – | – | – | – | MIC ([8]; Klebsiella pneumoniae): 0.2 µg/mL; MIC ([9]; Pseudomonas aeruginosa, GN10362): 1.56 µg/mL; MIC ([10]; Staphylococcus epidermidis, ATCC14990, read-out: Minimum Growth Inhibitory Concentration MIC): 3.13 µg/mL (≈ 5.73 µM); MIC ([11]; Pseudomonas aeruginosa, IAM1007, read-out: Minimum Growth Inhibitory Concentration MIC): 0.78 µg/mL (≈ 1.43 µM); MIC ([13]; Pseudomonas aeruginosa, M0148, read-out: Minimum Growth Inhibitory Concentration MIC): 1.56 µg/mL (≈ 2.85 µM); MIC [16, 27]: 0.78 µg/mL (≈ 1.43 µM); MIC [17]: 25 µg/mL (≈ 45.7 µM); MIC ([18]; Bacillus subtilis, ATCC6633, read-out: Minimum Growth Inhibitory Concentration MIC): 3.13 µg/mL (≈ 5.73 µM); MIC [19, 27]: 25 µg/mL (≈ 45.7 µM); MIC ([21]; Staphylococcus aureus): 3.13 µg/mL (≈ 5.73 µM); MIC ([23]; Escherichia coli, GN206): 1.56 µg/mL (≈ 2.85 µM); MIC ([23]; Escherichia coli, GN206, read-out: Minimum Growth Inhibitory Concentration MIC): 1.56 µg/mL (≈ 2.85 µM)
2 | CC[n+]1ccc(SCC2=C(C(=O)[O-])N3C(=O)[C@@H](NC(=O)/C(=N\O[C@@H](C)C(=O)O)c4csc(N)n4)[C@H]3SC2)cc1 [Compound I, (6R, 7R)-7-[(Z)-2-(2-aminothiazol-4-yl)-2-{(1S)-carboxyethoxyimino}acetamido]-3-(1-ethylpyridinium-4-ylthiomethyl)-ceph-3-em-4-carboxylate monosodium salt] | ≥ 4000 mg/kg | survived | 0.36 mg/mouse | 0.002 mg/mouse | 0.33 mg/mouse | 4.5 mg/mouse | 0.1 µg/mL | 0.2 µg/mL | 0.1 µg/mL | 0.05 µg/mL | 0.2 µg/mL | 0.78 µg/mL | 0.05 µg/mL | 3.13 µg/mL | 0.78 µg/mL | 0.78 µg/mL | 0.39 µg/mL | 3.13 µg/mL | 6.25 µg/mL | 1.56 µg/mL | toxicity (in words) ([2]; various animal tests): low toxicity; distribution in sensitivity to clinically isolated strains (in words) [24]: much more excellent antibacterial activity over a wide range; MIC ([9]; Pseudomonas aeruginosa GN10362, Table 2, read-out: MIC): 1.56 µg/mL; MIC [23, 36]: 0.1 µg/mL; MIC ([23]; Escherichia coli GN206, Table 2, read-out: MIC): 0.2 µg/mL; durability in a concentration to exhibit the antibacterial activity (in words) [25]: sufficient durability in a concentration to exhibit the antibacterial activity; transfer into blood and organ (in words) [25]: rapidly transferred into blood and organ; effect to prevent infections compared to the known compounds (in words) [26]: equal to or superior to them
3 | CON=C(C(=O)NC1C(=O)N2C(C(=O)[O-])=C(C[n+]3cccc4c3CCC4)CSC12)c1csc(N)n1 [HR-810, (6R, 7R)-7-[(Z)-2-(2-aminothiazol-4-yl)-2-(methoxyimino)acetamido]-3-cyclopentenopyridinium-1-ylmethyl-ceph-3-em-4-carboxylate] | ≥ 4000 mg/kg | survived | – | 0.006 mg/mouse | 1.3 mg/mouse | – | 0.05 µg/mL | 0.2 µg/mL (≈ 0.389 µM) | 0.05 µg/mL (≈ 0.0972 µM) | 0.1 µg/mL (≈ 0.194 µM) | 0.78 µg/mL (≈ 1.52 µM) | 3.13 µg/mL (≈ 6.08 µM) | 0.05 µg/mL | 0.39 µg/mL (≈ 0.758 µM) | 12.5 µg/mL (≈ 24.3 µM) | 12.5 µg/mL (≈ 24.3 µM) | 0.05 µg/mL (≈ 0.0972 µM) | 0.1 µg/mL (≈ 0.194 µM) | 0.78 µg/mL (≈ 1.52 µM) | 0.39 µg/mL (≈ 0.758 µM) | MIC [23, 36]: < 0.025 µg/mL
